Patent US20260001914A1, “MACROCYCLIC PEPTIDES TARGETING KRAS” (Merck Sharp & Dohme LLC, priority 2022, published 2026)
*1 amine or outer side, *2 acyl side, *3 side chain or, on linkers, in order; H or OH if unused. Where a SMILES comes first, the peptide text is derived from it. Bridges are numbered along the chain shown (N, C = ends). [ ]: non-standard residue; d: D form. cBu(1-CO,cis-3-CH2NH) = O=C([C@H]1C[C@@H](CN[*:1])C1)[*:2]; NMeNva(5-imidazol-1-yl) = CN[C@@H](CCCn1ccnc1)C(=O)O; Phe(4-guanidino) = N=C(N)Nc1ccc(C[C@H](N)C(=O)O)cc1; Phe(3,4-Cl2) = N[C@@H](Cc1ccc(Cl)c(Cl)c1)C(=O)O; Ala(pyrimidin-5-yl) = N[C@@H](Cc1cncnc1)C(=O)O; X8 = CN([C@@H](Cc1ccc(F)nc1)C(=O)[*:2])[*:1]; X42 = O=C([C@H](Cc1cc(F)ncc1F)N[*:1])[*:2]; Lys(N3) = [N-]=[N+]=NCCCC[C@H](N)C(=O)O; 1Nal = N[C@@H](Cc1cccc2ccccc12)C(=O)O; X61 = O=C(C12COC(CN[*:1])(C1)C2)[*:2]; Phe(2-F) = N[C@@H](Cc1ccccc1F)C(=O)O; NMe3Pal = CN[C@@H](Cc1cccnc1)C(=O)O; X1 = O=C(C12CC(CN[*:1])(C1)C2)[*:2]; X38 = NC(=O)CCCN(CC(=O)[*:2])[*:1]; Ala(cPr) = N[C@@H](CC1CC1)C(=O)O; NMeF = CN[C@@H](Cc1ccccc1)C(=O)O; PhLac = O=C(O)[C@@H](O)Cc1ccccc1; X79 = O=C(C1CCC(N[*:1])CC1)[*:2]; 3Pal = N[C@@H](Cc1cccnc1)C(=O)O; d3Pal = N[C@H](Cc1cccnc1)C(=O)O; Ahp(2) = CCCCC[C@H](N)C(=O)O; Cba = N[C@@H](CC1CCC1)C(=O)O; hLeu = CC(C)CC[C@H](N)C(=O)O; αMeC = C[C@](N)(CS)C(=O)O; NMeA = CN[C@@H](C)C(=O)O; Nle = CCCC[C@H](N)C(=O)O; Nva = CCC[C@H](N)C(=O)O

Molecular target: KRAS-G12D protein (Homo sapiens, UniProt P01116, G12D)
Sequence (P01116 1-188 isoform P01116-2 G12D): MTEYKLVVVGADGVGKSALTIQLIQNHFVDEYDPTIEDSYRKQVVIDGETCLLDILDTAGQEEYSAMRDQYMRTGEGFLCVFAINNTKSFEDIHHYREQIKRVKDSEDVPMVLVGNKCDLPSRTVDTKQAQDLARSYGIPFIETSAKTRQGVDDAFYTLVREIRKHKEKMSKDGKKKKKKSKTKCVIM
Assay: SOS-mediated nucleotide exchange assay (BODIPY-GDP / Tb-streptavidin TR-FRET)
Format: biochemical

SMILES	EC50
CCCCC[C@@H]1NC(=O)[C@H](Cc2ccc(OC)cc2)NC(=O)[C@H](CC2CCC2)NC(=O)[C@H](Cc2cccnc2)NC(=O)[C@H](C)N(C)C(=O)[C@H](Cc2ccccc2)NC(=O)CSC[C@@](C)(C(N)=O)NC(=O)[C@H](Cc2ccccc2)N(C)C1=O [compound 158, cyclo(F-NMeA-3Pal-cBuA-TyrOMe-Ahp-NMeF-aMeCl-ClAc)] ({CH2CO}-F[NMeA][3Pal][Cba]Y(Me)[Ahp(2)][NMeF][αMeC]-NH2; thioether N-8)	0.146 µM
CCCC[C@@H]1NC(=O)[C@H](Cc2cnc(C#N)nc2)NC(=O)[C@H](C)N(C)C(=O)[C@H](Cc2ccccc2)OC(=O)C23CC(CNC(=O)[C@H](Cc4ccccc4)N(C)C(=O)[C@H](CCCC)NC(=O)[C@H](Cc4ccccc4F)NC1=O)(C2)C3 (single isomer, unassigned) [compound 315, cyclo(FLac-NMeA-AlaPyrim4CN-Nle-Phe2F-Nle-NMeF-amBCP)]	0.00528 µM
CCCC[C@@H]1NC(=O)[C@H](Cc2ccccc2F)NC(=O)[C@H](CCC(C)C)NC(=O)[C@H](Cc2cncnc2)NC(=O)[C@H](C)N(C)C(=O)[C@H](Cc2ccccc2)OC(=O)C23CC(CNC(=O)[C@H](Cc4cccnc4)N(C)C1=O)(C2)C3 [compound 127, cyclo(FLac-NMeA-PyrimAla-hL-Phe2F-Nle-NMe3Pal-amBCP)] (cyclo([NMe3Pal][X1][PhLac][NMeA][Ala(pyrimidin-5-yl)][hLeu][Phe(2-F)][Nle]))	0.228 µM
CC(C)CC[C@@H]1NC(=O)[C@H](Cc2ccccc2F)NC(=O)[C@H](CC2CCC2)NC(=O)[C@H](Cc2cncnc2)NC(=O)[C@H](C)N(C)C(=O)[C@H](Cc2ccccc2)OC(=O)C23CC(CNC(=O)[C@H](Cc4ccccc4)N(C)C1=O)(C2)C3 [compound 134, cyclo(FLac-NMeA-PyrimAla-cBuA-Phe2F-hL-NMeF-amBCP)] (cyclo([Cba][Phe(2-F)][hLeu][NMeF][X1][PhLac][NMeA][Ala(pyrimidin-5-yl)]))	0.00647 µM
CCCC[C@@H]1NC(=O)[C@H](Cc2ccc(OC)cc2)NC(=O)[C@H](CC(C)C)NC(=O)[C@H](Cc2ccc(NC(=N)N)cc2)NC(=O)[C@H](CCC)NC(=O)[C@H](Cc2ccccc2)NC(=O)CSC[C@H](C(N)=O)NC(=O)[C@H](Cc2ccccc2)N(C)C1=O [compound 48, cyclo(F-Nva-Phe4Gn-L-TyrOMe-Nle-NMeF-dCl-ClAc)] ({CH2CO}-F[Nva][Phe(4-guanidino)]LY(Me)[Nle][NMeF][dC]-NH2; thioether N-8)	4.32 µM
CCCC[C@@H]1NC(=O)[C@H](Cc2cccnc2)NC(=O)[C@H](CCCn2ccnc2)N(C)C(=O)[C@H](Cc2ccccc2)N(C)C(=O)[C@H]2C[C@@H](CNC(=O)[C@H](Cc3cccnc3)N(C)C(=O)[C@H](CCCCN=[N+]=[N-])NC(=O)[C@H](Cc3ccccc3F)NC1=O)C2 [compound 157, cyclo(NMeF-NMeNvalmid-3Pal-Nle-Phe2F-LysN3-NMe3Pal-c3amCblc)] (cyclo([3Pal][Nle][Phe(2-F)][Lys(N3)][NMe3Pal][cBu(1-CO,cis-3-CH2NH)][NMeF][NMeNva(5-imidazol-1-yl)]))	7.76 µM
CC(C)CC[C@@H]1NC(=O)[C@H](Cc2ccccc2F)NC(=O)[C@H](CC2CC2)NC(=O)[C@H](Cc2cccnc2)NC(=O)[C@H](C)N(C)C(=O)[C@H](Cc2ccccc2)OC(=O)C23CC(CNC(=O)[C@H](Cc4cccnc4F)N(C)C1=O)(C2)C3 (single isomer, unassigned) [compound 297, cyclo(FLac-NMeA-3Pal-cPrA-Phe2F-hL-NMe3Pal2F-amBCP)]	0.004 µM
CCCC[C@@H]1NC(=O)[C@H](Cc2ccccc2F)NC(=O)C(CC2CC(F)(F)C2)NC(=O)[C@H](Cc2cncnc2)NC(=O)[C@H](C)N(C)C(=O)[C@H](Cc2ccccc2)OC(=O)C23CC(CNC(=O)[C@H](Cc4cccnc4)N(C)C1=O)(C2)C3 (single isomer, unassigned) [compound 123, cyclo(FLac-NMeA-PyrimAla-rF2Cba-Phe2F-Nle-NMe3Pal-amBCP)]	8.19 µM
CC(C)CC[C@@H]1NC(=O)[C@H](Cc2ccccc2F)NC(=O)[C@H](CC2CC2)NC(=O)[C@H](Cc2cncnc2)NC(=O)[C@H](C)N(C)C(=O)[C@H](Cc2ccccc2)OC(=O)C23CC(CNC(=O)[C@H](Cc4ccc(F)nc4)N(C)C1=O)(C2)C3 [compound 339, cyclo(FLac-NMeA-PyrimAla-cPrA-Phe2F-hL-NMe3Pal4F-amBCP)] (cyclo([Ala(cPr)][Phe(2-F)][hLeu][X8][X1][PhLac][NMeA][Ala(pyrimidin-5-yl)]))	0.001 µM
CCCCC[C@@H]1NC(=O)[C@H](Cc2ccc(O)cc2)NC(=O)[C@H](CC(C)C)NC(=O)[C@H](Cc2ccc(O)cc2)NC(=O)[C@@H](CCCNC(=N)N)NC(=O)[C@H](Cc2ccccc2)NC(=O)CSC[C@@H](C(N)=O)NC(=O)[C@H](Cc2ccccc2)N(C)C1=O [compound 4, cyclo(F-dR-Y-L-Y-Ahp-NMeF-Cl-ClAc)]	3.28 µM
CCC[C@@H]1NC(=O)[C@H](Cc2ccc(O)cc2)NC(=O)[C@H](CC(C)C)NC(=O)[C@H](Cc2ccc(O)cc2)NC(=O)[C@H](CCCNC(=N)N)NC(=O)[C@H](Cc2ccccc2)NC(=O)CSCCNC(=O)[C@H](Cc2ccccc2)N(C)C1=O [compound 83, cyclo(F-R-Y-L-Y-Nva-NMeF-Cysteamine-ClAc)]	6.35 µM
CCCC[C@@H]1NC(=O)[C@H](CCCCN)NC(=O)[C@H](CCCNC(=N)N)NC(=O)[C@H](Cc2cccc3ccccc23)NC(=O)CSC[C@H](C(N)=O)NC(=O)[C@H](Cc2ccccc2)N(C)C(=O)[C@H](CCCC)NC(=O)[C@H](Cc2ccc(O)cc2)NC1=O [compound 19, cyclo(INal-R-K-Nle-Y-Nle-NMeF-dCl-ClAc)]	1.28 µM
CCCCC[C@@H]1NC(=O)[C@H](Cc2ccc(OC)cc2)NC(=O)[C@H](CC2CCC2)NC(=O)[C@H](Cc2ccc(NC(=N)N)cc2)NC(=O)CN(CCCC(N)=O)C(=O)[C@H](Cc2ccccc2)NC(=O)CSC[C@@](C)(C(N)=O)NC(=O)[C@H](Cc2ccccc2)N(C)C1=O [compound 386, cyclo(F-Cmpg-Phe4Gn-cBuA-TyrOMe-Abp-NMeF-aMeCl-ClAc)] ({CH2CO}-F[X38][Phe(4-guanidino)][Cba]Y(Me)[Ahp(2)][NMeF][αMeC]-NH2; thioether N-8)	0.134 µM
CCCC[C@@H]1NC(=O)[C@H](Cc2ccc(Cl)c(Cl)c2)NC(=O)[C@H](C)N(C)C(=O)[C@H](Cc2ccccc2)OC(=O)C23CC(CNC(=O)[C@H](Cc4ccccc4)N(C)C(=O)[C@H](CCCC)NC(=O)[C@H](Cc4ccccc4F)NC1=O)(C2)C3 [compound 309, cyclo(FLac-NMeA-Phe34Cl2-Nle-Phe2F-Nle-NMeF-amBCP)] (cyclo([NMeA][Phe(3,4-Cl2)][Nle][Phe(2-F)][Nle][NMeF][X1][PhLac]))	0.108 µM
CCCC[C@@H]1NC(=O)[C@H](Cc2ccccc2F)NC(=O)[C@H](CC2CCC2)NC(=O)[C@@H](Cc2cccnc2)NC(=O)[C@H](CCCNC(=N)N)NC(=O)[C@H](Cc2ccccc2)NC(=O)C23COC(CNC(=O)[C@H](Cc4cccnc4)N(C)C1=O)(C2)C3 [compound 106, cyclo(F-R-d3Pal-cBuA-Phe2F-Nle-NMe3Pal-amOBCH)] (cyclo(FR[d3Pal][Cba][Phe(2-F)][Nle][NMe3Pal][X61]))	6.82 µM
CCCC[C@@H]1NC(=O)[C@H](Cc2ccc(NC(=N)N)cc2)NC(=O)[C@H](CCCNC(=N)N)NC(=O)[C@H](Cc2cccc3ccccc23)NC(=O)CSC[C@H](C(=O)O)NC(=O)[C@H](Cc2ccccc2)N(C)C(=O)[C@H](CCCC)NC(=O)[C@H](Cc2ccc(O)cc2)NC1=O [compound 141, cyclo(INal-R-Phe4Gn-Nle-Y-Nle-NMeF-dC-ClAc)] ({CH2CO}-[1Nal]R[Phe(4-guanidino)][Nle]Y[Nle][NMeF][dC]-OH; thioether N-8)	0.0168 µM
CCCC[C@@H]1NC(=O)[C@H](Cc2cccnc2)NC(=O)[C@H](CCCn2ccnc2)N(C)C(=O)[C@H](Cc2ccccc2)OC(=O)C23CC(CNC(=O)[C@H](Cc4ccccc4)N(C)C(=O)[C@H](CCCC)NC(=O)[C@H](Cc4ccccc4F)NC1=O)(C2)C3 [compound 233, cyclo(FLac-NMeNvalmid-3Pal-Nle-Phe2F-Nle-NMeF-amBCP)] (cyclo([3Pal][Nle][Phe(2-F)][Nle][NMeF][X1][PhLac][NMeNva(5-imidazol-1-yl)]))	0.0289 µM
CCCC[C@@H]1NC(=O)[C@H](Cc2ccc(O)cc2)NC(=O)[C@H](CC(C)C)NC(=O)[C@H](Cc2ccc(O)cc2)NC(=O)[C@H](CCCNC(=N)N)NC(=O)[C@H](Cc2ccccc2)NC(=O)CSC[C@@H](C(N)=O)NC(=O)[C@H](Cc2ccccc2)N(C)C1=O [compound 1, cyclo(F-R-Y-L-Y-Nle-NMeF-Cl-ClAc)]	0.912 µM
CCCC[C@@H]1NC(=O)[C@H](Cc2cccnc2)NC(=O)[C@H](CCCNC(=N)N)NC(=O)[C@H](Cc2ccccc2)NC(=O)C2CCC(CC2)NC(=O)[C@H](Cc2ccccc2)N(C)C(=O)[C@H](CCCC)NC(=O)[C@H](Cc2ccc(OC)cc2)NC1=O [compound 201, cyclo(F-R-3Pal-Nle-TyrOMe-Nle-NMeF-cHxclacid4NH2)] (cyclo([3Pal][Nle]Y(Me)[Nle][NMeF][X79]FR))	0.256 µM
CCCC[C@@H]1NC(=O)[C@H](Cc2ccc(O)cc2)NC(=O)[C@H](CC(C)C)NC(=O)[C@H](Cc2ccc(O)cc2)NC(=O)[C@H](CCCNC(=N)N)NC(=O)[C@H](Cc2ccccc2)NC(=O)CSCCNC(=O)[C@H](Cc2ccccc2)N(C)C1=O [compound 69, cyclo(F-R-Y-L-Y-Nle-NMeF-Cysteamine-ClAc)]	1.47 µM
CC(C)CC[C@@H]1NC(=O)[C@H](Cc2cc(F)ncc2F)NC(=O)[C@H](CC2CC2)NC(=O)[C@H](Cc2cncnc2)NC(=O)[C@H](C)N(C)C(=O)[C@H](Cc2ccccc2)OC(=O)C23CC(CNC(=O)[C@H](Cc4ccccc4)N(C)C1=O)(C2)C3 [compound 280, cyclo(FLac-NMcA-PyrimAla-cPrA-4Pal25F2-hL-NMeF-amBCP)] (cyclo([Ala(cPr)][X42][hLeu][NMeF][X1][PhLac][NMeA][Ala(pyrimidin-5-yl)]))	0.004 µM
CCCCC[C@@H]1NC(=O)[C@H](Cc2ccc(O)cc2)NC(=O)[C@H](CC(C)C)NC(=O)[C@H](Cc2ccc(O)cc2)NC(=O)[C@H](CCCNC(=N)N)NC(=O)[C@H](Cc2ccccc2)NC(=O)CSC[C@H](C(N)=O)NC(=O)[C@H](Cc2ccccc2)N(C)C1=O [compound 3, cyclo(F-R-Y-L-Y-Ahp-NMeF-dCl-ClAc)]	0.966 µM
